Test results reported in the supplement of paper PMC8149375.

Tests used:
Conditions in all cases: treatment: drug alone; 5 days
CAKI-1 [1] = assay: AUC of dose-response viability curve, drug alone (arbitrary (AUC of normalised viability)); higher = less growth inhibition
Method: (§1)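 Primary HTS: 8 RCC cell lines treated with 8 doses (up to 10 uM) of each library drug alone for 5 days; viability read by CellTiter-Glo and normalised to DMSO. GI50 was fitted with XLfit (4-parameter), AUC is the area under the dose-response curve, and minimum viability is the lowest fraction of DMSO viability across doses.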

A498 [2] = assay: as above
Method: as §1

UO-31 [3] = assay: as above
Method: as §1

SN12C [4] = assay: as above
Method: as §1

TK-10 [5] = assay: as above
Method: as §1

786-O [6] = assay: as above
Method: as §1

ACHN [7] = assay: as above
Method: as §1

769-P [8] = assay: as above
Method: as §1

CAKI-1 [9] = assay: minimum viability across doses, drug alone, relative to DMSO (fraction); higher = less growth inhibition
Method: as §1

A498 [10] = assay: as above
Method: as §1

UO-31 [11] = assay: as above
Method: as §1

SN12C [12] = assay: as above
Method: as §1

TK-10 [13] = assay: as above
Method: as §1

786-O [14] = assay: as above
Method: as §1

ACHN [15] = assay: as above
Method: as §1

769-P [16] = assay: as above
Method: as §1

CAKI-1 [17] = assay: GI50, drug alone; higher = less potent
Method: as §1

A498 [18] = assay: GI50, drug alone; higher = less potent
Method: as §1

UO-31 [19] = assay: GI50, drug alone; higher = less potent
Method: as §1

SN12C [20] = assay: GI50, drug alone; higher = less potent
Method: as §1

TK-10 [21] = assay: GI50, drug alone; higher = less potent
Method: as §1

786-O [22] = assay: GI50, drug alone; higher = less potent
Method: as §1

ACHN [23] = assay: GI50, drug alone; higher = less potent
Method: as §1

769-P [24] = assay: GI50, drug alone; higher = less potent
Method: as §1

| GI50, drug alone (786-O [22]) [µM] | GI50, drug alone (ACHN [23]) [µM] | SMILES | AUC of dose-response viability curve (CAKI-1 [1]) | AUC of dose-response viability curve (A498 [2]) | AUC of dose-response viability curve (UO-31 [3]) | AUC of dose-response viability curve (SN12C [4]) | AUC of dose-response viability curve (TK-10 [5]) | AUC of dose-response viability curve (786-O [6]) | AUC of dose-response viability curve (ACHN [7]) | AUC of dose-response viability curve (769-P [8]) | minimum viability across doses (CAKI-1 [9]) | minimum viability across doses (A498 [10]) | minimum viability across doses (UO-31 [11]) | minimum viability across doses (SN12C [12]) | minimum viability across doses (TK-10 [13]) | minimum viability across doses (786-O [14]) | minimum viability across doses (ACHN [15]) | minimum viability across doses (769-P [16]) | GI50, drug alone (CAKI-1 [17]) [µM] | GI50, drug alone (A498 [18]) [µM] | GI50, drug alone (UO-31 [19]) [µM] | GI50, drug alone (SN12C [20]) [µM] | GI50, drug alone (TK-10 [21]) [µM] | GI50, drug alone (769-P [24]) [µM] |
| --- | --- | --- | --- | --- | --- | --- | --- | --- | --- | --- | --- | --- | --- | --- | --- | --- | --- | --- | --- | --- | --- | --- | --- | --- |
| 0.0587 | 0.215 | CC(=O)Nc1cccc(-n2c(=O)n(C3CC3)c(=O)c3c(Nc4ccc(I)cc4F)n(C)c(=O)c(C)c32)c1 | 1.93 | 3.29 | 3.28 | 2.39 | 1.67 | 1.76 | 1.81 | 2.26 | 0.201 | 0.735 | 0.382 | 0.405 | 0.289 | 0.332 | 0.312 | 0.257 | 0.228 | > 10 | 4.61 | 1.62 | 0.118 | 0.567 |
| 0.396 | 9.28 | CCn1c(-c2nonc2N)nc2c(C#CC(C)(C)O)ncc(OC[C@H]3CCCNC3)c21 | 2.74 | 3.82 | 3.19 | 3.06 | 2.59 | 1.97 | 3.03 | 3.15 | 0.432 | 0.979 | 0.769 | 0.693 | 0.469 | 0.288 | 0.434 | 0.839 | 5.92 | > 10 | > 10 | > 10 | 4.51 | > 10 |
| > 10 | > 10 | CCc1cc(Nc2nccc(-c3c(-c4ccc(OC)c(C(=O)Nc5c(F)cccc5F)c4)nc4ccccn34)n2)c(OC)cc1N1CCC(N2CCN(S(C)(=O)=O)CC2)CC1 | 3.12 | 4.54 | 5.43 | 3.17 | 3.23 | 3.37 | 3.03 | 3.26 | 0.635 | 1.04 | 1 | 0.858 | 0.865 | 0.785 | 0.804 | 0.828 | > 10 | > 10 | > 10 | > 10 | > 10 | > 10 |
| 0.342 | 0.161 | Cc1cnc(NC(=O)Nc2cc(Br)c(C)cc2OC[C@@H]2CNCCO2)cn1 | 2.83 | 3.76 | 3.67 | 3.07 | 2.25 | 2 | 1.82 | 2.27 | 0.145 | 0.0991 | 0.00586 | 0.175 | 0.156 | 0.00129 | 0.0243 | 0.0604 | 1.39 | 3.57 | 0.745 | 4.66 | 0.58 | > 10 |

| SMILES | GI50, drug alone (786-O [22]) [µM] | GI50, drug alone (ACHN [23]) [µM] | AUC of dose-response viability curve (CAKI-1 [1]) | AUC of dose-response viability curve (A498 [2]) | AUC of dose-response viability curve (UO-31 [3]) | AUC of dose-response viability curve (SN12C [4]) | AUC of dose-response viability curve (TK-10 [5]) | AUC of dose-response viability curve (786-O [6]) | AUC of dose-response viability curve (ACHN [7]) | AUC of dose-response viability curve (769-P [8]) | minimum viability across doses (CAKI-1 [9]) | minimum viability across doses (A498 [10]) | minimum viability across doses (UO-31 [11]) | minimum viability across doses (SN12C [12]) | minimum viability across doses (TK-10 [13]) | minimum viability across doses (786-O [14]) | minimum viability across doses (ACHN [15]) | minimum viability across doses (769-P [16]) | GI50, drug alone (CAKI-1 [17]) [µM] | GI50, drug alone (A498 [18]) [µM] | GI50, drug alone (UO-31 [19]) [µM] | GI50, drug alone (SN12C [20]) [µM] | GI50, drug alone (TK-10 [21]) [µM] | GI50, drug alone (769-P [24]) [µM] |
| --- | --- | --- | --- | --- | --- | --- | --- | --- | --- | --- | --- | --- | --- | --- | --- | --- | --- | --- | --- | --- | --- | --- | --- | --- |
| Cc1ccccc1-n1c(Cn2cnc3c(N)ncnc32)nc2cccc(C)c2c1=O | 7.98 | > 10 | 3.12 | 3.88 | 3.41 | 3.12 | 2.93 | 2.46 | 3.17 | 3.25 | 0.717 | 0.955 | 0.821 | 0.814 | 0.758 | 0.434 | 0.813 | 0.856 | > 10 | > 10 | > 10 | > 10 | > 10 | > 10 |
